What all share (assay type): functional, organism-based
In experiment [1] the test system is Mus musculus. Description: Antiinflammatory activity against collagen-induced arthritis in po dosed mouse assessed as inhibition of paw edema at 20 mg/kg, po after 20 days. The arrangement: dose 20 mg/kg.
In experiment [2] the test system is Mus musculus. Description: Antiinflammatory activity against collagen-induced arthritis in po dosed mouse assessed as synovial cell hyperplasia after 20 days.
Experiment [3] deals with Mus musculus. Description: Immunomodulatory activity in ip dosed mouse lung assessed as reduction of eosinophils in bronchoalveolar lavage fluid.
In experiment [4] the test system is Mus musculus. Nature of the experiment: Immunomodulatory activity in ip dosed mouse lung assessed as reduction in modulation of mucus production at 60 mg/kg. Also noted: dose 60 mg/kg.
Experiment [5] deals with Mus musculus. Description: Immunomodulatory activity in mouse assessed as inhibition of allergic airway inflammation at 60 mg/kg, ip. The arrangement: dose 60 mg/kg.
For experiment [6], the species on record is Mus musculus. Description: Immunomodulatory activity in mouse assessed as reduction in ovalbumin-induced TH2 cytokine secretion by ELISA. (An ELISA detects its analyte on a solid surface through an enzyme-linked reagent.)
Experiment [7] concerns Mus musculus. Description: Immunomodulatory activity in ip dosed mouse lung assessed as reduction in inhibition of ovalbumin-induced intense cell filtration.

Active and inactive are the calls of the source. No cut-off for these calls is given here.

Consider `C[C@@]12C[C@H]3OC(=O)[C@@H]1CO[C@]14O[C@]5([C@H]2C1=O)[C@@](O)(CC[C@H]1[C@H]4C[C@H]2O[C@]24CC=CC(=O)[C@]14C)C(=O)O[C@@]35C`, for which the inhibition result with Mus musculus [1] and in the experiment on Mus musculus [7] was “Active” each time. Besides, in the experiment on Mus musculus [2], the outcome was Active. Moreover, the result in the experiment on Mus musculus [3], in the experiment with Mus musculus [4] and in the experiment filed under Mus musculus [6] was inactive. In the experiment on Mus musculus [5], the inhibition result was “inactive”.
For the molecule `C[C@@H]1C[C@H]2[C@@H]3CCC4=CC(=O)C=C[C@]4(C)[C@@]3(F)[C@@H](O)C[C@]2(C)[C@@]1(O)C(=O)CO`, the outcome in the experiment on Mus musculus [3] was Active.

Source of the values: ChEMBL document CHEMBL1212907, “Activity of physalin F in a collagen-induced arthritis model” (J Nat Prod, 2010).
